Our source for the IC50 values is patent publication US20150352108A1, “AMINO-PYRIMIDINE COMPOUNDS AS INHIBITORS OF TBK1 AND/OR IKK EPSILON” (Alzheimer's Institute of America, priority 2009, published 2015).

The structures appear in SMILES notation.

What is called IC50 is the concentration that inhibits the measured activity by half.

For assay [1], the system named is secreted RANTES, prostate cancer DU145 cells. Put plainly: ELISA to detect secreted RANTES, DU145 cells. It is filed as cell-based. As to conditions: Homo sapiens, DU-145; cell system (DU145 or Poly(I:C)-induced MALME-3) not specified; read-out: IC50 for inhibition of the secretion of RANTES. The method, then: Prostate cancer DU145 cells were seeded at 20,000 cells/well in a 96-well tissue culture plate. The following day media was removed and replaced with complete media containing IKKε/TBK1 inhibitor (starting concentration 25 µM, 1:3 dilutions, final DMSO 0.05%). Cells were incubated for 20 hours and culture supernatant used to determine secreted RANTES levels using a commercially available ELISA kit (R & D Systems, Minneapolis, Minn.).
(An ELISA detects its analyte on a solid surface through an enzyme-linked reagent.)

The test system of assay [2] is IKKε-mediated phosphorylation of IRF3. As to the kind of experiment: In-situ phosphorylation of IRF3 (pIRF3 Ser396 ELISA) in HEK293T cells cotransfected with IRF3 and IKKε. It counts as cell-based. As to conditions: Homo sapiens, HEK-293T; HEK293T cells, 20 hours, text bins; read-out: IC50 for inhibition of the in-situ IKKε-mediated phosphorylation of IRF3. In a few lines: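 Cells for the IRF7 Western blots carried IRF7 and TBK1 plasmids, were seeded at 150,000/well, exposed to compound overnight and probed for pSer477/Ser479 IRF7. The ELISA readout used IRF3 + IKKε-cotransfected HEK293T at 20,000/well with 20 h treatment, quantifying pSer396 IRF3 relative to DMSO, plus a parallel CellTiter-Glo viability check.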

The next assay deals with T1, TBK1 (Homo sapiens, UniProt Q9UHD2).
T1 construct: His-tag; made in house; host or cells: Sf9 insect cells
T1 sequence (Q9UHD2 1-729): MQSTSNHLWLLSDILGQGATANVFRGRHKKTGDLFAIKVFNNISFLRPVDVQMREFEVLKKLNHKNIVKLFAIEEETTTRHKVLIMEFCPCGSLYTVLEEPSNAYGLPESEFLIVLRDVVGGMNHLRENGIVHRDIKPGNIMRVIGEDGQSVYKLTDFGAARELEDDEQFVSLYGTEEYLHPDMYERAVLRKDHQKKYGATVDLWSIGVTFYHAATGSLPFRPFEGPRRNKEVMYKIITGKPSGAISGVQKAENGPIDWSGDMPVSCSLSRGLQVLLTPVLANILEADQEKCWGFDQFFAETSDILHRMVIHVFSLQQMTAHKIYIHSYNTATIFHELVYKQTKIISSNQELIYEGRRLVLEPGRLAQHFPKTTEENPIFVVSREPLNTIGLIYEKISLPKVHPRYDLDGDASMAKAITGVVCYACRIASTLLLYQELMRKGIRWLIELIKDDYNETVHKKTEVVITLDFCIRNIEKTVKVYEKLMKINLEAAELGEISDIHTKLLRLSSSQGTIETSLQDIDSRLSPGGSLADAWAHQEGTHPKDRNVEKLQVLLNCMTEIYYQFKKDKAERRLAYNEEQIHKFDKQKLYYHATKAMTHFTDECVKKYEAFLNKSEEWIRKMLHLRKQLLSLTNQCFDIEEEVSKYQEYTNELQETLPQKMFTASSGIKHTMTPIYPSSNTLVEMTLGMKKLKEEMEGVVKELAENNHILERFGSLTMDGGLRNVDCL
Put plainly: In-vitro TBK1 kinase assay ([γ33]ATP filter-plate). It is filed as biochemical. Particulars: text bins; read-out: IC50 for inhibition of the kinase activity of TBK1. In a few lines: (§1)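 His-tagged IKKε and TBK1 from Sf9 cells were assayed with myelin basic protein or casein and [γ33]ATP at 2×Km ATP (32 μM for IKKε, 60 μM for TBK1). Enzyme was 0.1 or 0.015 μg/ml for IKKε and 0.1 or 0.02 μg/ml for TBK1 (normal/sensitized). Reactions ran 30-45 min, were filter-captured, scintillation-counted, and normalized to DMSO after background subtraction.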

Another assay addresses T2, IKKε (Homo sapiens, UniProt Q14164).
T2 construct: His-tag; made in house; host or cells: Sf9 insect cells
T2 sequence (Q14164 1-716): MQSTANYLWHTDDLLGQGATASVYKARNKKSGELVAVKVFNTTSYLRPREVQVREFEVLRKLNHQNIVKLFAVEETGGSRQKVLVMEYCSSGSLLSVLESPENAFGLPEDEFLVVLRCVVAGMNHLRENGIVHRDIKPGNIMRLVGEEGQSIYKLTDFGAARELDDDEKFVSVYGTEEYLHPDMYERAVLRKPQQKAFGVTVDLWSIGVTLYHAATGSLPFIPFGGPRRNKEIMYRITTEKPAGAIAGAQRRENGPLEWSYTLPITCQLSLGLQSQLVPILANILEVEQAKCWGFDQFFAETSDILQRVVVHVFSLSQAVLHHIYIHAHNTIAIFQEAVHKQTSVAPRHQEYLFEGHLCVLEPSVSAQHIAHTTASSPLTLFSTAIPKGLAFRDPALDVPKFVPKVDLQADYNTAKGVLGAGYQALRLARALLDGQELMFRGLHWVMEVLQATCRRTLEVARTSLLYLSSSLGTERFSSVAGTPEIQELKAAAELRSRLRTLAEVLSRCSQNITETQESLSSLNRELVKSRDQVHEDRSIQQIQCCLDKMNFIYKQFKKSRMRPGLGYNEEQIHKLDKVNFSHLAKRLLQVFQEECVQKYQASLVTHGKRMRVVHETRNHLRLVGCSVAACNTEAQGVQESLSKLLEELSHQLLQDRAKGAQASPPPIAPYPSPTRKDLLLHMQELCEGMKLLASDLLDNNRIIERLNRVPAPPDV
Put plainly: In-vitro IKKε kinase assay ([γ33]ATP filter-plate). It is filed as biochemical. Particulars: text bins; read-out: IC50 for inhibition of the kinase activity of IKKε. Summed up: as §1

In the next assay the test system is DU4475 cells. As to the kind of experiment: Cell growth inhibition assay (CellTiter-Glo), DU4475. It is filed as cell-based. Particulars: Homo sapiens, DU-4475; 3-5 days. As for the experimental part:
DU4475, COLO205, and OPM2 cells were plated in 96-well plates at 5000 cells/well. The following day test compounds (compounds according to Formula I) were added, maintaining the final DMSO solvent concentration at 0.4%. After the desired incubation time (3-5 days), cell number was assayed using the CellTiter-Glo luminescent cell viability assay (Promega, Inc., Madison, Wis.). Viability was expressed as percent DMSO control after background subtraction.

In the case of `COc1cc(-c2ccnc(Nc3ccc(N4CCN(CCO)CC4)cc3)n2)cc(C#N)c1OC1CCOCC1` [compound 446, 5-[2-({4-[4-(2-Hydroxyethyl)piperazin-1-yl]phenyl}amino)pyrimidin-4-yl]-3-methoxy-2-(tetrahydro-2H-pyran-4-yloxy)benzonitrile], the IC50 in assay [1] is below 10 nM; in assay [2] it was below 100 nM; on TBK1, below 10 nM; at IKKε, below 5 nM.

`CC(=O)NCc1ccc(Nc2nccc(-c3ccc(OC4CCOCC4)c(C#N)c3)n2)cc1` [compound 492, N-[4-({4-[3-cyano-4-(tetrahydro-2H-pyran-4-yloxy)phenyl]pyrimidin-2-yl}amino)benzyl] acetamide]: the IC50 was below 10 nM in assay [1], below 100 nM in assay [2], below 10 nM on TBK1 and below 5 nM at IKKε.

Regarding `COc1ccc(-c2ccnc(Nc3cc(CO)c(OC)c(OC)c3)n2)cc1C#N` [Example 127, 5-(2-{[3-(Hydroxymethyl)-4,5-dimethoxyphenyl]amino}pyrimidin-4-yl)-2-methoxybenzonitrile], the results for the IC50 in the assay with DU4475 cells, on TBK1 and at IKKε were at most 10 nM, below 10 nM and below 5 nM, respectively.

For `COc1cc(NC(=O)CCSC)cc(Nc2nccc(-c3ccc(OC)c(C#N)c3)n2)c1` [compound 339, N-(3-{[4-(3-Cyano-4-methoxyphenyl)pyrimidin-2-yl]amino}-5-methoxyphenyl)-3-(methylsulfanyl) propanamide], the figures for the IC50 in the assay on DU4475 cells, on TBK1 and at IKKε were at most 10 nM, 10 to 100 nM and 5 to 50 nM, respectively.

In the case of `COc1cc(Nc2nccc(-c3ccc(OC4CCOCC4)c(C#N)c3)n2)ccc1C(=O)N(C)CCN(C)C` [compound 505, 4-({4-[3-cyano-4-(tetrahydro-2H-pyran-4-yloxy)phenyl]pyrimidin-2-yl}amino)-N-[2-(dimethylamino)ethyl]-2-mrthoxy-N-methylbenzamide], the IC50 is below 10 nM in assay [1], below 100 nM in assay [2], below 10 nM on TBK1 and below 5 nM on IKKε.

For `COCCOCC(=O)Nc1cc(Nc2nccc(-c3ccc(OC)c(C#N)c3)n2)cc(OC)c1` [compound 316, N-(3-{[4-(3-Cyano-4-methoxyphenyl)pyrimidin-2-yl]amino}-5-methoxyphenyl)-2-(2-methoxyethoxy) acetamide], the figures for the IC50 with DU4475 cells and on IKKε were at most 10 nM and 5 to 50 nM, respectively.

On to `Cc1cc(Nc2nccc(-c3ccc(OC4CCOCC4)c(C#N)c3)n2)ccc1N1CCOCC1` [Example 18, 5-(2-{[3-methyl-4-(morpholin-4-yl)phenyl]amino}pyrimidin-4-yl)-2-(tetrahydro-2H-pyran-4-yloxy)benzonitrile], for which the IC50 in assay [2] is 100 to 250 nM; at TBK1, below 10 nM; at IKKε it was below 5 nM.

Take `COc1cc(Nc2nccc(-c3ccc(OC4CCOCC4)c(C#N)c3)n2)cc(OC)c1OC` [Example 290, 2-(Tetrahydro-2H-pyran-4-yloxy)-5-{2-[(3,4,5-trimethoxyphenyl)amino]pyrimidin-4-yl}benzonitrile]: the figures for the IC50 (in assay [2]; at TBK1; on IKKε) were 250 to 500 nM, below 10 nM and below 5 nM, respectively.

Consider `COc1cc(Nc2nccc(-c3ccc(OC4CCOCC4)c(C#N)c3)n2)ccc1CN1CC(N2CCOCC2)C1` [compound 481, 5-{2-[(3-Methoxy-4-{[3-(morpholin-4-yl)azetidin-1-yl]methyl}phenyl)amino]pyrimidin-4-yl}-2-(tetrahydro-2H-pyran-4-yloxy)benzonitrile], for which the IC50 was below 100 nM in assay [2], below 10 nM at TBK1 and below 5 nM on IKKε.

For the compound `Cc1ccc(Nc2nccc(-c3ccc(OC4CCOCC4)c(C#N)c3)n2)cc1OCCN1CCN(C(C)C)CC1` [compound 597, 5-{2-[(4-Methyl-3-{2-[4-(propan-2-yl)piperazin-1-yl]ethoxy}phenyl)amino]pyrimidin-4-yl}-2-(tetrahydro-2H-pyran-4-yloxy)benzonitrile], the IC50 is 100 to 250 nM in assay [2], below 10 nM on TBK1 and below 5 nM on IKKε.
